These results are taken from patent publication EP0509845A1, “(+) and (-) enantiomers of 5-aliphatic-6-(benzoxazinyl- or benzothiazinyl)-2,3,4,5-tetrahydropyridazin-3-ones” (ORTHO PHARMACEUTICAL CORPORATION, priority 1991, dated 1992).

Read-outs that look alike come from different tables or passages of the source.

Experiment [1] has as its target T1, canine cardiac cyclic nucleotide phosphodiesterase (PDE) fraction III (Canis lupus familiaris, UniProt A0A8I3NYE0).
T1 construct: The fraction III isoenzyme was pooled and dialyzed; from tissue; host or cells: canine heart, soluble supernatant, DEAE cellulose fraction III (800 mM sodium acetate eluate)
T1 sequence (A0A8I3NYE0 1-1135): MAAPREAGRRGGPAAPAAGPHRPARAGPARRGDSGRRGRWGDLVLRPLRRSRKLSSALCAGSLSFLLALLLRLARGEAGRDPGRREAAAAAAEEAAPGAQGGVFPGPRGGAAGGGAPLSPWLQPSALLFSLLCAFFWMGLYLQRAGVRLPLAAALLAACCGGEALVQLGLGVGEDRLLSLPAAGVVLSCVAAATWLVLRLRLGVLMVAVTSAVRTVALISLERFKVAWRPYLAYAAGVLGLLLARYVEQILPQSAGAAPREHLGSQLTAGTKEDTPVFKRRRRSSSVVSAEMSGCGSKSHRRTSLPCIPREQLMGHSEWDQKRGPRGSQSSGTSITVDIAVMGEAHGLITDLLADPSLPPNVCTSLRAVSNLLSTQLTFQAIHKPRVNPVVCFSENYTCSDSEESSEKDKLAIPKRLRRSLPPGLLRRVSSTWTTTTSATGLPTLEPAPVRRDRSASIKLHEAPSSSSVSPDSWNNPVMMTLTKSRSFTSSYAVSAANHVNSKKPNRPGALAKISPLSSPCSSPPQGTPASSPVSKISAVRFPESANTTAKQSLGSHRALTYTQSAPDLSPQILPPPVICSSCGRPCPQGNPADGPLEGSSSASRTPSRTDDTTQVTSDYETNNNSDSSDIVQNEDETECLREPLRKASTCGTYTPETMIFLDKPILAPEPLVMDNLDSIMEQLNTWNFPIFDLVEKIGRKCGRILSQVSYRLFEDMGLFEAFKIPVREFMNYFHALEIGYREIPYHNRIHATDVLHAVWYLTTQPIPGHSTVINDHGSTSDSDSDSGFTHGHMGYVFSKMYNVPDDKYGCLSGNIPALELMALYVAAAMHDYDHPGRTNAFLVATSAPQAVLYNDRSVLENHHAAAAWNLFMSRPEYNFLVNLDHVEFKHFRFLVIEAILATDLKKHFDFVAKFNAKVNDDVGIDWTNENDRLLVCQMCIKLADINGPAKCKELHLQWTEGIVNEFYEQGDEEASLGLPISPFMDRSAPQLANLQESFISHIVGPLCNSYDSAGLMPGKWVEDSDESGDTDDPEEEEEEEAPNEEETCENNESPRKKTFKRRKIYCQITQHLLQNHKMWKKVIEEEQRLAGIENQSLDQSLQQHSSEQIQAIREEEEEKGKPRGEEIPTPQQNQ
Briefly: Cyclic AMP phosphodiesterase assay with fraction III isoenzyme, comparative testing. It counts as biochemical.

For experiment [2], the system named is human platelet aggregation. The experiment can be described thus: Platelet aggregation in vitro in platelet rich plasma. In kind it is cell-based. The conditions noted are these: for IC50: human PRP. The procedure: The racemate and enantiomeric Bemoradan were tested for their effects in vitro on human platelet aggregation. Platelet rich plasma (PRP) was prepared from human donors who were free of aspirin for the preceding week. Venous blood was collected in sodium citrate vacutainer tubes and PRP was obtained by centrifuging the blood at l000 rpm for 5 min. Compounds were dissolved in methanol and added to 480 µl of PRP in a Chrono-log dual channel aggregometer l min prior to aggregant. Serotonin at 5 µM or ADP at 2 µM were the aggregating agents.

The mark [3] stands for this setting: Table I summary, canine cardiac PDE fraction III, read-out: PDE III inhibition (IC50).
[4] abbreviates: canine heart fraction III, 0.1 µM cyclic AMP, read-out: PDE III IC50.
The mark [5] stands for this setting: ADP at 2 µM, read-out: Antiaggregatory IC50 (µM) vs. ADP.
Setting [6] is: Serotonin at 5 µM, read-out: Antiaggregatory IC50 (µM) vs. 5-HT.
[7] abbreviates: Table I summary, ADP at 2 µM as aggregant, read-out: Platelet aggregation (IC50) vs. ADP.
[8] abbreviates: Table I summary, serotonin at 5 µM as aggregant, read-out: Platelet aggregation (IC50) vs. 5-HT (serotonin).

For `CC1CC(=O)NN=C1c1ccc2c(c1)OCC(=O)N2` (single isomer, unassigned; isomer 6) [(+) isomer, 6-(3,4-dihydro-3-oxo-l,4(2H)-benzoxazin-7-yl)-2,3,4,5-tetrahydro-5-methyl-pyridazin-3-one], the IC50 amounted to 8000 nM in experiment [1] (setting [3]); 8000 nM in experiment [1] (setting [4]); 3.8 µM in experiment [2] (setting [5]); 8 µM in experiment [2] (setting [6]); 3.8 µM in experiment [2] (setting [7]); 8 µM in experiment [2] (setting [8]).
`CC1CC(=O)NN=C1c1ccc2c(c1)OCC(=O)N2` (single isomer, unassigned; isomer 6) [(-) isomer, 6-(3,4-dihydro-3-oxo-l,4(2H)-benzoxazin-7-yl)-2,3,4,5-tetrahydro-5-methyl-pyridazin-3-one]: the “Potency Difference (-vs+), PDE III inhibition (IC50)” value in experiment [1] ((-) isomer versus (+) isomer) amounted to 44 x. The “times more potent than the (+) isomer, inhibition of PDE III” value in experiment [1] ((-) isomer versus (+) isomer) is recorded as approximately 44 times. Moreover, the “times more potent than the racemate, inhibition of PDE III” value in experiment [1] ((-) isomer versus racemate) is given as “approximately 4 times”. The IC50 in experiment [1] (setting [3]) stood at 180 nM; in experiment [1] (setting [4]), 180 nM; in experiment [2] (setting [5]), 0.32 µM; in experiment [2] (setting [6]) it was 0.5 µM; in experiment [2] (setting [7]), 0.32 µM; in experiment [2] (setting [8]) it was 0.5 µM. The “Potency Difference (-vs+), Platelet aggregation (IC50) vs. 5-HT (serotonin)” value in experiment [2] ((-) isomer versus (+) isomer) is listed as 16x. Besides, the “Potency Difference (-vs+), Platelet aggregation (IC50) vs. ADP” value in experiment [2] ((-) isomer versus (+) isomer) is on record as 12x.

A word on the IC50: it is the concentration that inhibits the measured activity by half.
